# Laboratory results: paper PMC10322702 (Nature Chemistry, 2023)
# “And” between values parts separate entries of the source, which are not always exact repeats. Equal entries are not always repeated. Numbered stars: 1 amine (or outer) side, 2 acyl side, 3 side chain; on linkers, the order of the positions; unused ones are H or OH. Bridge positions count the residues as written; N and C are the ends. Square brackets hold non-standard residues; d marks the D form. Peptide text beside a SMILES is read from it. Acbc(cis-1,3) = O=C([C@H]1C[C@@H](N[*:1])C1)[*:2]; X1 = O=C([C@@H]1CC[C@H](N[*:1])C1)[*:2]
# Key:
# [1] = Serum stability assay in human serum (LC/MS)
# SARS-CoV-2 M^pro [2] = target: T1, SARS-CoV-2 M^pro (Severe acute respiratory syndrome coronavirus 2, UniProt P0DTD1); assay: biochemical; type: biochemical
# SARS-CoV-2 M^pro [3] = target: T1, SARS-CoV-2 M^pro; assay: biochemical; type: binding; conditions: for kon: read-out: ka (kinetic association)
# [4] = 37 °C, incubation time 0.5 h, relative to 0 h = 100%, technical replicates, 30 min
# [5] = 37 °C, incubation time 1 h, relative to 0 h = 100%, technical replicates, 60 min
# [6] = 37 °C, incubation time 2 h, relative to 0 h = 100%, technical replicates, 120 min
# [7] = 37 °C, incubation time 4 h, relative to 0 h = 100%, technical replicates, 240 min
# [8] = 37 °C, incubation time 8 h, relative to 0 h = 100%, technical replicates, 480 min
# [9] = human, Remaining peptide (%), 37 °C, incubation time 0.5 h, relative to 0 h = 100%, technical replicates
# [10] = human, Remaining peptide (%), 37 °C, incubation time 1 h, relative to 0 h = 100%, technical replicates
# [11] = human, Remaining peptide (%), 37 °C, incubation time 2 h, relative to 0 h = 100%, technical replicates
# [12] = human, Remaining peptide (%), 37 °C, incubation time 4 h, relative to 0 h = 100%, technical replicates
# [13] = human, Remaining peptide (%), 37 °C, incubation time 8 h, relative to 0 h = 100%, technical replicates
# [14] = human, Remaining peptide (%), 37 °C, incubation time 24 h, relative to 0 h = 100%, technical replicates
SMILES,"Remaining peptide (%) [1, 5]","Remaining peptide (%) [1, 6]","Remaining peptide (%) [1, 7]","Remaining peptide (%) [1, 8]",half-life at 10 μM ([1]; human),"remaining at 1 h, 10 μM [1, 10]","remaining at 2 h, 10 μM [1, 11]","remaining at 4 h, 10 μM [1, 12]","remaining at 8 h, 10 μM [1, 13]","remaining at 24 h, 10 μM [1, 14]",IC50 (SARS-CoV-2 M^pro [2]),Kd (SARS-CoV-2 M^pro [3]),kd (kinetic dissociation) (SARS-CoV-2 M^pro [3]),kon (SARS-CoV-2 M^pro [3]),also measured
CC(C)C[C@@H]1NC(=O)[C@@H](Cc2ccc(O)cc2)NC(=O)CSC[C@H](C(N)=O)NC(=O)[C@H](C)NC(=O)[C@H](C)NC(=O)[C@H](Cc2ccc(O)cc2)NC(=O)[C@H](CCCNC(=N)N)NC(=O)[C@H](Cc2ccc(O)cc2)NC(=O)[C@@H]2CC[C@@H](C2)NC(=O)[C@H](CO)NC(=O)[C@H](Cc2ccc(O)cc2)NC(=O)[C@H]([C@@H](C)O)NC(=O)[C@H](CO)NC(=O)[C@H](C)NC(=O)[C@H](Cc2ccc(O)cc2)NC(=O)[C@H](Cc2c[nH]cn2)NC1=O [GM3] ({CH2CO}-[dY]LHYASTYS[X1]YRYAA[dC]-NH2; thioether N-16),71.95% and 68.98%,55.38% and 55.49%,43.40% and 39.26%,15.43% and 15.99%,2.5 h,60.8%,48.5%,45.6%,15.7%,0%,2060 nM,62 nM,13 10^-3 s^-1,200000 M⁻¹ s⁻¹,"Remaining peptide (%) [1, 4]: 72.71% and 73.43%; remaining at 0.5 h, 10 μM [1, 9]: 67.7%; inhibition at 2.75 µM (SARS-CoV-2 M^pro [2]): 66.3%"
"CC[C@H](C)[C@@H]1NC(=O)[C@H](Cc2ccccc2)NC(=O)[C@@H](Cc2ccc(O)cc2)NC(=O)CSC[C@H](C(N)=O)NC(=O)[C@H]([C@@H](C)CC)NC(=O)[C@@H]2CCCN2C(=O)[C@H](CC(C)C)NC(=O)[C@H]2C[C@H](C2)NC(=O)[C@H](Cc2c[nH]cn2)NC(=O)[C@@H]2CCCN2C(=O)[C@H](CC(=O)O)NC(=O)[C@H](Cc2c[nH]cn2)NC(=O)[C@H](Cc2ccccc2)NC(=O)[C@H]([C@@H](C)CC)NC(=O)[C@H]([C@@H](C)O)NC(=O)[C@H](Cc2c[nH]cn2)NC1=O [GM6] ({CH2CO}-[dY]FIHTIFHDPH[Acbc(cis-1,3)]LPI[dC]-NH2; thioether N-16)",–,–,–,–,–,–,–,–,–,–,2280 nM,82 nM,6.4 10^-3 s^-1,78000 M⁻¹ s⁻¹,inhibition at 5.5 µM (SARS-CoV-2 M^pro [2]): 90.2%; inhibition at 16.6 µM (SARS-CoV-2 M^pro [2]): 100%; inhibition at 50.1 µM (SARS-CoV-2 M^pro [2]): 100%
"CC(C)C[C@@H]1NC(=O)[C@H](CC(N)=O)NC(=O)[C@H](CC(C)C)NC(=O)[C@H]2C[C@H](C2)NC(=O)[C@H](CCC(N)=O)NC(=O)[C@H](Cc2ccccc2)NC(=O)[C@@H](Cc2ccc(O)cc2)NC(=O)CSC[C@H](C(N)=O)NC(=O)CNC(=O)[C@@H]2CCCN2C(=O)[C@H](CCCNC(=N)N)NC(=O)[C@H](Cc2ccc(O)cc2)NC(=O)CNC1=O [GM4H3Q] ({CH2CO}-[dY]FQ[Acbc(cis-1,3)]LNLGYRPG[dC]-NH2; thioether N-13)",98.03% and 94.19%,84.19% and 81.93%,100.31% and 98.70%,92.68% and 86.88%,82 h,93.4%,87.5%,99.9%,93.9%,81.3%,10 nM,0.86 nM,1.0 10^-3 s^-1,1.2e+06 M⁻¹ s⁻¹,"Remaining peptide (%) ([1]; 37 °C, incubation time 24 h, relative to 0 h = 100%, technical replicates, 1440 min): 77.71% and 81.24%; Remaining peptide (%) ([1]; 37 °C, incubation time 50 h, relative to 0 h = 100%, technical replicates, 3000 min): 64.07% and 63.70%; Remaining peptide (%) ([1]; 37 °C, incubation time 100 h, relative to 0 h = 100%, technical replicates, 6000 min): 43.40% and 43.85%; remaining at 50 h, 10 μM ([1]; human, Remaining peptide (%), 37 °C, incubation time 50 h, relative to 0 h = 100%, technical replicates): 70.1%; remaining at 100 h, 10 μM ([1]; human, Remaining peptide (%), 37 °C, incubation time 100 h, relative to 0 h = 100%, technical replicates): 44.2%; fold more potent inhibitory activity relative to GM4 (SARS-CoV-2 M^pro [2]): fivefold more potent; inhibition at 0.186 µM (SARS-CoV-2 M^pro [2]): 96%; inhibition at 0.55 µM (SARS-CoV-2 M^pro [2]): 100%; inhibition at 1.66 µM (SARS-CoV-2 M^pro [2]): 100%; inhibition at 5.01 µM (SARS-CoV-2 M^pro [2]): 100%; fold change in binding affinity relative to the original peptide (SARS-CoV-2 M^pro [3]): sixfold stronger"
CC(C)C[C@@H]1NC(=O)[C@@H](Cc2ccc(O)cc2)NC(=O)CSC[C@H](C(N)=O)NC(=O)[C@H](C)NC(=O)[C@H](C)NC(=O)[C@H](Cc2ccc(O)cc2)NC(=O)[C@H](CCCNC(=N)N)NC(=O)[C@H](Cc2ccc(O)cc2)NC(=O)[C@H](C)NC(=O)[C@H](CO)NC(=O)[C@H](Cc2ccc(O)cc2)NC(=O)[C@H]([C@@H](C)O)NC(=O)[C@H](CO)NC(=O)[C@H](C)NC(=O)[C@H](Cc2ccc(O)cc2)NC(=O)[C@H](Cc2c[nH]cn2)NC1=O [GM3γ^210A] ({CH2CO}-[dY]LHYASTYSAYRYAA[dC]-NH2; thioether N-16),35.60% and 33.84%,15.90% and 15.53%,6.44% and 7.19%,2.01%,0.59 h,33.1%,17%,7.23%,2.04%,0%,120 nM,7.5 nM,2.1 10^-3 s^-1,280000 M⁻¹ s⁻¹,"Remaining peptide (%) [1, 4]: 47.41% and 46.64%; remaining at 0.5 h, 10 μM [1, 9]: 44.4%; inhibition at 0.309 µM (SARS-CoV-2 M^pro [2]): 77.9%; inhibition at 0.933 µM (SARS-CoV-2 M^pro [2]): 95.6%; inhibition at 2.75 µM (SARS-CoV-2 M^pro [2]): 100%; inhibition at 8.32 µM (SARS-CoV-2 M^pro [2]): 100%; fold change in binding affinity relative to the original peptide (SARS-CoV-2 M^pro [3]): eightfold stronger"
CC(C)C[C@@H]1NC(=O)[C@H](CC(N)=O)NC(=O)[C@H](CC(C)C)NC(=O)[C@H](CC(N)=O)NC(=O)[C@H](Cc2c[nH]cn2)NC(=O)[C@H](Cc2ccccc2)NC(=O)[C@@H](Cc2ccc(O)cc2)NC(=O)CSC[C@H](C(N)=O)NC(=O)CNC(=O)[C@@H]2CCCN2C(=O)[C@H](CCCNC(=N)N)NC(=O)[C@H](Cc2ccc(O)cc2)NC(=O)CNC1=O [GM4γ^14N] ({CH2CO}-[dY]FHNLNLGYRPG[dC]-NH2; thioether N-13),–,–,–,–,–,–,–,–,–,–,1000 nM,480 nM,9.5 10^-3 s^-1,20000 M⁻¹ s⁻¹,fold less active than GM4 (M^pro inhibition) (SARS-CoV-2 M^pro [2]): 20 fold; inhibition at 16.6 µM (SARS-CoV-2 M^pro [2]): 100%; inhibition at 50.1 µM (SARS-CoV-2 M^pro [2]): 100%
"CC(C)C[C@@H]1NC(=O)[C@H](CC(N)=O)NC(=O)[C@H](CC(C)C)NC(=O)[C@H]2C[C@H](C2)NC(=O)[C@H](C)NC(=O)[C@H](Cc2ccccc2)NC(=O)[C@@H](Cc2ccc(O)cc2)NC(=O)CSC[C@H](C(N)=O)NC(=O)CNC(=O)[C@@H]2CCCN2C(=O)[C@H](CCCNC(=N)N)NC(=O)[C@H](Cc2ccc(O)cc2)NC(=O)CNC1=O [GM4H3A] ({CH2CO}-[dY]FA[Acbc(cis-1,3)]LNLGYRPG[dC]-NH2; thioether N-13)",–,–,–,–,–,–,–,–,–,–,> 25000 nM,> 10000 nM,–,–,inhibition of M^pro (in words) (SARS-CoV-2 M^pro [2]): no inhibition
"CC[C@H](C)[C@@H]1NC(=O)[C@H](Cc2ccc(O)cc2)NC(=O)[C@H]([C@@H](C)O)NC(=O)[C@H](C)NC(=O)[C@@H]2CC[C@@H](C2)NC(=O)[C@H](CO)NC(=O)[C@H]([C@@H](C)O)NC(=O)[C@H](Cc2ccc(O)cc2)NC(=O)[C@H](Cc2ccccc2)NC(=O)[C@H](Cc2c[nH]cn2)NC(=O)[C@H](CC(C)C)NC(=O)[C@@H](Cc2ccc(O)cc2)NC(=O)CSC[C@H](C(N)=O)NC(=O)[C@@H]2CCCN2C(=O)[C@H](Cc2ccc(O)cc2)NC1=O [GM7, ^AcyLHFYTSγ^2ATYIYPc-NH2] ({CH2CO}-[dY]LHFYTS[X1]ATYIYP[dC]-NH2; thioether N-15)",–,–,–,–,–,–,–,–,–,–,7930 nM,490 nM,23 10^-3 s^-1,48000 M⁻¹ s⁻¹,inhibition at 25.1 µM (SARS-CoV-2 M^pro [2]): 96%
"CC(C)C[C@@H]1NC(=O)[C@H](CC(N)=O)NC(=O)[C@H](CC(C)C)NC(=O)[C@H]2C[C@H](C2)NC(=O)[C@H](CCC(=O)O)NC(=O)[C@H](Cc2ccccc2)NC(=O)[C@@H](Cc2ccc(O)cc2)NC(=O)CSC[C@H](C(N)=O)NC(=O)CNC(=O)[C@@H]2CCCN2C(=O)[C@H](CCCNC(=N)N)NC(=O)[C@H](Cc2ccc(O)cc2)NC(=O)CNC1=O [GM4H3E] ({CH2CO}-[dY]FE[Acbc(cis-1,3)]LNLGYRPG[dC]-NH2; thioether N-13)",–,–,–,–,–,–,–,–,–,–,> 25000 nM,360 nM,7.1 10^-3 s^-1,20000 M⁻¹ s⁻¹,inhibition of M^pro (in words) (SARS-CoV-2 M^pro [2]): observed only with the highest tested concentration (25 µM)
